Test results from patent US20240246918A1, “COMPOUNDS AND COMPOSITIONS AS EIF4E INHIBITORS AND THE USES THEREOF” (Ribometrix, Inc., priority 2022, published 2024).
Read-outs that look alike come from different tables or passages of the source.

Legend:
[1] = system: cyclin D1 protein levels in COLO 205 cells; assay: Cyclin D1 cellular inhibition assay (HTRF, 6 hours); assay type: cell-based; settings: 6 hours of compound treatment, Cyclin D1 protein levels by HTRF, read-out: COLO 205 6 h Cyclin D1 TR-FRET IC50
Protocol: The effect of compound treatment on cyclin D1 protein levels in COLO 205 cells was assessed, as follows. Test compound plates were prepared with a Tecan D300e Digital Dispenser as 11-point concentration-response curves with a final DMSO concentration of 1%. COLO 205 (ATCC, CCL-222) colorectal tumor cells were seeded to assay-ready plates in RPMI-1640 medium supplemented with 10% FBS at 20,000 cells in a volume of 6 microliters per well. After 6 hours of compound treatment, cells were lysed and Cyclin D1 protein levels were assessed by an HTRF assay (PerkinElmer #64CYCD1ITPEG), according to the manufacturer's protocol. Time-resolved fluorescence was measured using a Clariostar Plus microplate reader (BMG Labtech) or equivalent. After normalization to the average of DMSO control and maximum inhibition control wells, concentration-response data were plotted and standard 4-parameter curve fitting (GraphPad Prism v9.4.1) was utilized to determine IC50 values.

[2] = system: COLO 205 colorectal tumor cells; assay: Tumor cell viability inhibition assay (CellTiter-Glo 2.0, 72 hours); assay type: cell-based; settings: COLO 205 cell viability
How it was run: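 COLO 205 cells (1500/well, RPMI-1640 + 10% FBS) exposed for 72 h to an 11-point, 4-fold dilution series; cellular ATP read by CellTiter-Glo 2.0 luminescence. Data normalized to DMSO and maximum-inhibition controls; IC50 from 4-parameter curve fit.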

[3] = target: T1, human eIF4E protein (Homo sapiens, UniProt P06730); assay: Biochemical competitive binding assay (TR-FRET competition, EDA-m7GDP-ATTO-647N probe); settings: read-out: hEIF4E TR-FRET IC50
T1 construct: purchased Novus NBP-45314
How it was run: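 His-tagged human eIF4E (4 nM) was preincubated with Eu-anti-His antibody (2.5 nM) and added to compound (11-point, 4-fold dilutions) for 15 min. Then 5 nM EDA-m7GDP-ATTO-647N was added for 15 min, in HEPES pH 7.5, 100 mM KCl. The 665/620 TR-FRET ratio was normalized to controls, and IC50 was taken from 4-parameter fits.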

T1 sequence (P06730 whole entry): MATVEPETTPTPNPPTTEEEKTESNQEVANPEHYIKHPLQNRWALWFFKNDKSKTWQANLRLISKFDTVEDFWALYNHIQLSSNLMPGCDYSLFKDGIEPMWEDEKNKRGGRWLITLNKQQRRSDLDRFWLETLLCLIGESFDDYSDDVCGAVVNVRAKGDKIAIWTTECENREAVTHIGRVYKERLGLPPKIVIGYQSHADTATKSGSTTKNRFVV

IC50 ([1]; Homo sapiens, COLO 205, 6 h) [µM]	IC50 ([2]; Homo sapiens, COLO 205, 72 h) [µM]	IC50 [3] [nM]	IC50 [1] [µM]	IC50 [2] [µM]	Structure (SMILES)
> 20	> 20	< 100	–	–	Cc1cc(-c2cc(Cl)ccc2OCCn2c(C)nc3c(c2=O)C[C@@H](N(C)[C@H]2CC[C@@](C)(O)CC2)CC3)c2scc(C(=O)NS(C)(=O)=O)c2n1 (single isomer, unassigned) [Compound 215]
> 20	> 20	< 100	–	–	Cc1cc(-c2cc(Cl)ccc2OCCn2c(C)nc3c(c2=O)C[C@H](N(C)[C@H]2CC[C@@](C)(O)CC2)CC3)c2scc(C(=O)O)c2n1 (single isomer, unassigned) [Compound 224]
> 20	> 20	< 100	–	–	Cc1cc(-c2cc(Cl)ccc2OCCn2c(C)nc3c(c2=O)C[C@H](N(C)[C@H]2CC[C@](C)(O)CC2)CC3)c2scc(C(=O)O)c2n1 (single isomer, unassigned) [Compound 227]
> 20	> 20	< 100	–	–	Cc1cc(-c2ccc(Cl)cc2OCCn2c(C)nc3c(c2=O)C[C@H](N(C)[C@H]2C[C@@](C)(O)C2)CC3)c2scc(C(=O)O)c2n1 (single isomer, unassigned) [Compound 229]
5 to 20	5 to 20	< 100	–	–	Cc1cc(-c2cc(Cl)ccc2OCCn2c(C)nc3c(c2=O)CC(N(C)C2(C4CCC4)CC2)CC3)c2scc(C(=O)NS(C)(=O)=O)c2n1 (single isomer, unassigned) [Compound 231]
–	–	< 100	< 5	< 5	Cc1cc(-c2cc(Cl)ccc2OCCn2c(C)nc3c(c2=O)CC(N(C)C2(C4CCC4)CC2)CC3)c2scc(C(=O)NS(C)(=O)=O)c2n1 (single isomer, unassigned) [Compound 232]
< 5	< 5	< 100	–	–	Cc1cc(-c2cc(Cl)ccc2OCCn2c(C)nc3c(c2=O)CC(N(C)CC2CC(F)(F)C2)CC3)c2scc(C(=O)O)c2n1 (single isomer, unassigned) [Compound 258]
< 5	< 5	< 100	–	–	Cc1cc(-c2cc(Cl)ccc2OCCn2c(C)nc3c(c2=O)C[C@@H](N(C)C[C@H]2C[C@@H](C(F)(F)F)C2)CC3)c2scc(C(=O)O)c2n1 (stereo in doubt) [Compound 189]
< 5	< 5	< 100	–	–	Cc1cc(-c2cc(Cl)ccc2OCCn2c(C)nc3c(c2=O)C[C@H](N(C)C[C@H]2C[C@@H](C(F)(F)F)C2)CC3)c2scc(C(=O)O)c2n1 (stereo in doubt) [Compound 223]

The next lines start with the molecule.

Structure (SMILES)	IC50 ([1]; Homo sapiens, COLO 205, 6 h) [µM]	IC50 ([2]; Homo sapiens, COLO 205, 72 h) [µM]	IC50 [3] [nM]	IC50 [1] [µM]	IC50 [2] [µM]
COc1cc(CN(C)C2CCc3nc(C)n(CCOc4ccc(Cl)cc4-c4cc(C)nc5c(C(=O)NS(C)(=O)=O)csc45)c(=O)c3C2)ccn1 (single isomer, unassigned) [Compound 216]	< 5	< 5	< 100	–	–
COc1cc(CN(C)C2CCc3nc(C)n(CCOc4ccc(Cl)cc4-c4cc(C)nc5c(C(=O)O)csc45)c(=O)c3C2)ccn1 (single isomer, unassigned) [Compound 217]	< 5	< 5	< 100	–	–
COc1cc(CN(C)C2CCc3nc(C)n(CCOc4ccc(Cl)cc4-c4cc(C)nc5c(C(=O)O)csc45)c(=O)c3C2)ccn1 (single isomer, unassigned) [Compound 218]	–	–	< 100	< 5	5 to 20
Cc1cc(-c2cc(Cl)ccc2OCCn2c(C)nc3c(c2=O)C[C@@H](N(C)C[C@H]2C[C@H](C(F)(F)F)C2)CC3)c2scc(C(=O)O)c2n1 (single isomer, unassigned) [Compound 221]	< 5	< 5	< 100	–	–
Cc1cc(-c2cc(Cl)ccc2OCCn2c(C)nc3c(c2=O)CC(N(C)Cc2ccc(=O)[nH]c2)CC3)c2scc(C(=O)O)c2n1 (single isomer, unassigned) [Compound 235]	> 20	> 20	< 100	–	–
COC1CCN(C2CCc3nc(C)n(CCOc4ccc(Cl)cc4-c4cc(C)nc5c(C(=O)NS(C)(=O)=O)csc45)c(=O)c3C2)CC1 (single isomer, unassigned) [Compound 239]	< 5	< 5	< 100	–	–
COC1CCN(C2CCc3nc(C)n(CCOc4ccc(Cl)cc4-c4cc(C)nc5c(C(=O)NS(C)(=O)=O)csc45)c(=O)c3C2)CC1 (single isomer, unassigned) [Compound 240]	–	–	< 100	5 to 20	< 5
Cc1cc(-c2cc(Cl)ccc2OCCn2c(C)nc3c(c2=O)CC(N(C)CC2CC(F)(F)C2)CC3)c2scc(C(N)=O)c2n1 (stereo not drawn) [Compound 138]	> 20	5 to 20	100 to 500	–	–
